Experimental data taken from patent US20210038607A1, “OXADIAZOLYLTHIOPHENE DERIVATIVES USEFUL AS HISTONE DEACETYLASE INHIBITORS” (Karus Therapeutics Limited, priority 2018, published 2021).

Experiments:
Human HDAC1 = target: T1, Human HDAC1 (Homo sapiens, UniProt Q13547); assay: HDAC1 biochemical assay, AMC-labeled peptide substrate; conditions: read-out: HDAC Isoform IC50 (nM) 1
T1 construct: full length with C-terminal His-tag and C-terminal FLAG-tag; His (C); FLAG (C); host or cells: baculovirus expression system
How it was run: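 Two-step fluorogenic read: HDAC1 deacetylates 50 μM acetyl-lysine AMC peptide RHKK(Ac)AMC for 1 h at 30° C (pH 8.0, 1% DMSO, with compound), then developer digests the product for fluorescence at Ex/Em 360/460. Enzyme is full-length human, His/FLAG-tagged, insect-cell expressed, at 0.3 ng/ul.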

Recombinant human HDAC6 = target: T2, Recombinant human HDAC6 (Homo sapiens, UniProt Q9UBN7); assay: HDAC6 biochemical assay, AMC-labeled peptide substrate; conditions: HDAC6; read-out: HDAC Isoform IC50 (nM) 6
T2 construct: full length, MW=159 kDa; GST (N); host or cells: Sf9 insect cells (baculovirus)
T2 sequence (Q9UBN7 1-1215): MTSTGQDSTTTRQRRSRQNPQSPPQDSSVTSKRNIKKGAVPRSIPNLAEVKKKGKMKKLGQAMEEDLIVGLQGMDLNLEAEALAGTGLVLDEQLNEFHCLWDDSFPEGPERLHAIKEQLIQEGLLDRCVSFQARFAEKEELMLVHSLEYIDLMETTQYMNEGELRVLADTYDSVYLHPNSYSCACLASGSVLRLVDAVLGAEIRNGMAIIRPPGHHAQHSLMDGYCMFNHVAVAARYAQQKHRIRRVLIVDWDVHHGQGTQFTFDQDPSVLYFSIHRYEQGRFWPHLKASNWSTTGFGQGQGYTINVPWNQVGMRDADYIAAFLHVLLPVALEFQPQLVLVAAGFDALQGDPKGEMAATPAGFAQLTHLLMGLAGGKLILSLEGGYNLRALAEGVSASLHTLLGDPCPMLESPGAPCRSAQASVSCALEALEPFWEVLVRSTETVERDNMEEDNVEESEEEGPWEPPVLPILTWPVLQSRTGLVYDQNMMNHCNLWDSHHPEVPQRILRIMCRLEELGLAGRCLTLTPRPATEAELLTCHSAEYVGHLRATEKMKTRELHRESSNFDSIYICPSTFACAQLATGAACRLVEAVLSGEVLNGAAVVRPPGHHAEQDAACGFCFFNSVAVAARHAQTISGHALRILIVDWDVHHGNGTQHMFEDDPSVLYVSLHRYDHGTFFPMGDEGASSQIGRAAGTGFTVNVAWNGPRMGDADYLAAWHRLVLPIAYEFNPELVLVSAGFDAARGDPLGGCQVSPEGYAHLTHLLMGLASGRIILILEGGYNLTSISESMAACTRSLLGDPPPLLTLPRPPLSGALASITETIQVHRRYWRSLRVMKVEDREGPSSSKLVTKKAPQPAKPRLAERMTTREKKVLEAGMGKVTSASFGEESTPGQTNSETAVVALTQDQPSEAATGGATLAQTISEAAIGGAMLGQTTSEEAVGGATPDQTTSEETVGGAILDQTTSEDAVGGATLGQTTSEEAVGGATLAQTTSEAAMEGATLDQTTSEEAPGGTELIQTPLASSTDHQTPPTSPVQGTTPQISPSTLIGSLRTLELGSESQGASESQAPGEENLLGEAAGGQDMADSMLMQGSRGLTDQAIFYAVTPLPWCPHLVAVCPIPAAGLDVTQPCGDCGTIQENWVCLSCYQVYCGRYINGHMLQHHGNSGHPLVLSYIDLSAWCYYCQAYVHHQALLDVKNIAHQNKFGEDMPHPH
How it was run: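 Two-step fluorogenic read-out: enzyme deacetylates 50 μM RHKK(Ac)AMC for 1 h at 30° C in pH 8.0 Tris buffer with BSA and 1% DMSO, then developer cleavage gives signal at Ex 360/Em 460. Enzyme: 0.3 ng/ul recombinant full-length human HDAC6, GST-tagged, Sf9-expressed.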

Human HDAC9 = target: T3, Human HDAC9 (Homo sapiens, UniProt Q9UKV0); assay: HDAC9 biochemical assay, class IIa-specific substrate; conditions: read-out: HDAC Isoform IC50 (nM) 9
T3 construct: amino acids 604-1066 with C-terminal His tag; His (C); host or cells: baculovirus expression system
How it was run: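 HDAC9 residues 604-1066 (C-terminal His tag, baculovirus-expressed) at 0.06 ng/ul with 50 μM class IIa substrate Boc-Lys(trifluoroacetyl)-AMC in Tris-HCl pH 8.0 buffer with BSA and 1% DMSO. 30 min at room temperature, then developer added; fluorescence read at 360/460 nm Ex/Em.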

Human HDAC7 = target: T4, Human HDAC7 (Homo sapiens, UniProt Q8WUI4); assay: HDAC7 biochemical assay, class IIa-specific substrate; conditions: read-out: HDAC Isoform IC50 (nM) 7
T4 construct: (a.a. 518-end) with N-terminal GST tag; GST (N); host or cells: baculovirus expression system
T4 sequence (Q8WUI4 518-952 limits assumed): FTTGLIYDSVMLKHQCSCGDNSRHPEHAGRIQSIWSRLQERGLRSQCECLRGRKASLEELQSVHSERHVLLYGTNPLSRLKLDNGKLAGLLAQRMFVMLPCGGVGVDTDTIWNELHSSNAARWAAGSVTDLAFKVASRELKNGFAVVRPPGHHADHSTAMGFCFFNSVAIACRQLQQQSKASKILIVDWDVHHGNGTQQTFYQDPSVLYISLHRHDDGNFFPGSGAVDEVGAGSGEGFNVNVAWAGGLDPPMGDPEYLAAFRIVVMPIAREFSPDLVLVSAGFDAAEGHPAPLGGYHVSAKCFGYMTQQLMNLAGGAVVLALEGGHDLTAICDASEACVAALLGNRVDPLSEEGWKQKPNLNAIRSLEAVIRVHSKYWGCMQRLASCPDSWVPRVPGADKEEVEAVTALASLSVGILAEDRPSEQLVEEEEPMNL
How it was run: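 Two-step fluorogenic readout: class IIa-selective trifluoroacetyl-lysine AMC substrate (50 μM) deacetylated by N-terminal GST-HDAC7 fragment (0.001 ng/ul), then digested by developer, Ex/Em 360/460. Reaction: 30 min, room temperature, Tris-HCl pH 8.0, NaCl/KCl/MgCl2, 1 mg/mL BSA, 1% DMSO.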

Human HDAC5 = target: T5, Human HDAC5 (Homo sapiens, UniProt Q9UQL6); assay: HDAC5 biochemical assay, class IIa-specific substrate; conditions: read-out: HDAC Isoform IC50 (nM) 5
T5 construct: full length with C-terminal His tag, MW=51.1 kDa; His (C); host or cells: baculovirus expression system
How it was run: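 Two-step fluorogenic read-out: deacetylated trifluoroacetyl-lysine AMC substrate (50 μM) digested by developer, measured at Ex/Em 360/460. Deacetylation step: 0.05 ng/ul His-tagged full-length baculoviral enzyme with compound, 30 min, room temperature, pH 8.0 Tris with 1 mg/mL BSA and 1% DMSO.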

Human HDAC4 = target: T6, Human HDAC4 (Homo sapiens, UniProt P56524); assay: HDAC4 biochemical assay, class IIa-specific substrate; conditions: read-out: HDAC Isoform IC50 (nM) 4
T6 construct: amino acids 627-1085 with N-terminal GST tag; GST (N); host or cells: baculovirus expression system
How it was run: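 Two-step fluorogenic read-out: deacetylated BOC-Lys(trifluoroacetyl)-AMC (50 μM) was digested by developer and measured at Ex/Em 360/460. Deacetylation by 0.004 ng/ul HDAC4 (aa 627-1085, N-terminal GST) ran 30 min at room temperature, pH 8.0 Tris buffer, 1 mg/mL BSA, 1% DMSO.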

T1 sequence (Q13547 whole entry, canonical isoform): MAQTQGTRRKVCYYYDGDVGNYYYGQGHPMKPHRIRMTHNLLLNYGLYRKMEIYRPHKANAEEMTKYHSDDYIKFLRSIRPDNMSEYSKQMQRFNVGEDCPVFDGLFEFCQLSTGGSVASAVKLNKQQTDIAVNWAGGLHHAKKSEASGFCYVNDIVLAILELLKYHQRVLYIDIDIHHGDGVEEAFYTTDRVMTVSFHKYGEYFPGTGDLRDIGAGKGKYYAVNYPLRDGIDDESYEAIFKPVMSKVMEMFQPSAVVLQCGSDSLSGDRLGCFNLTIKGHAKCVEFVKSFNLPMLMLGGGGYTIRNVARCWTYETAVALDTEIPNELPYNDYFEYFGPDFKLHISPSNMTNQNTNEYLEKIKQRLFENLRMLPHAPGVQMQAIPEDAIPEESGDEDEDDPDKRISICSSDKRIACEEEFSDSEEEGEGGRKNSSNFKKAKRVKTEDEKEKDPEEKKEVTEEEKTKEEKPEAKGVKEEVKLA
T5 sequence (Q9UQL6 656-1122 limits assumed): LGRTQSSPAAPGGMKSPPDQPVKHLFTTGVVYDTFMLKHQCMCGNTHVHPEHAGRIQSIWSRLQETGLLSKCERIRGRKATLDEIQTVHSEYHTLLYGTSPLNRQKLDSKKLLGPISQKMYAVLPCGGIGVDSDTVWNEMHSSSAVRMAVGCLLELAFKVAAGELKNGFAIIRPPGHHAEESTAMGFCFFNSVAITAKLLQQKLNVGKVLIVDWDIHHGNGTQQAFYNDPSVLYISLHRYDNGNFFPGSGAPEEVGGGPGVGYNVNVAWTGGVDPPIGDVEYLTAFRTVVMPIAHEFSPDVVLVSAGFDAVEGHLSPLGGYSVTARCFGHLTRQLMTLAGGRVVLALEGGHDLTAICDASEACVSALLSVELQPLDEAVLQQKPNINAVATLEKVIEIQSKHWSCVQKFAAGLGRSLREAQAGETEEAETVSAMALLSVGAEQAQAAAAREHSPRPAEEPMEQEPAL
T6 sequence (P56524 627-1084 limits assumed): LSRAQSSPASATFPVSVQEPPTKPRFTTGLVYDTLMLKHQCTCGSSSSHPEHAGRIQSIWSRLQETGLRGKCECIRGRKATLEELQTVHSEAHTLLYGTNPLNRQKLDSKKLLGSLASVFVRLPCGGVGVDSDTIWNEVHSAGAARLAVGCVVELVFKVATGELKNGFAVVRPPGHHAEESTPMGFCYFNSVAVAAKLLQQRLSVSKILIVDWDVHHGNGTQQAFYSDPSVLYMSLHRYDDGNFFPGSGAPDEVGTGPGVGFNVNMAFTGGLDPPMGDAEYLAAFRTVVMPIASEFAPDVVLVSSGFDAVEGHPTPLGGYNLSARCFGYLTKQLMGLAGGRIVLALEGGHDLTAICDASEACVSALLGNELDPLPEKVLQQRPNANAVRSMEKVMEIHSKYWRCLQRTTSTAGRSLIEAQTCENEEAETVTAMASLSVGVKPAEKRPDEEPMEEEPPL
T3 sequence (Q9UKV0 604-1066 isoform Q9UKV0-5): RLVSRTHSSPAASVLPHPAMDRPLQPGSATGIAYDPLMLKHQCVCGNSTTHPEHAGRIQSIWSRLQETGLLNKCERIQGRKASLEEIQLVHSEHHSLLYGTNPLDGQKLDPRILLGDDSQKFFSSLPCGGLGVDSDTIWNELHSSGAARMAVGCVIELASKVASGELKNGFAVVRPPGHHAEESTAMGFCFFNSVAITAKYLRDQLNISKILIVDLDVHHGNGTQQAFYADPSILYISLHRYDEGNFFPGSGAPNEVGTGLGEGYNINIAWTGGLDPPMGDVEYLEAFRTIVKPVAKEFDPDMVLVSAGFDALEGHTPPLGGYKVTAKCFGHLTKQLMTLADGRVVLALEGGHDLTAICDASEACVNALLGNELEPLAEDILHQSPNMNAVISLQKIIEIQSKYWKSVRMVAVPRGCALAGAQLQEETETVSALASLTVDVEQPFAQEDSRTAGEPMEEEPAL

Row | Structure (SMILES) | IC50 (Human HDAC1) | IC50 (Recombinant human HDAC6) | IC50 (Human HDAC9) | IC50 (Human HDAC7) | IC50 (Human HDAC5) | IC50 (Human HDAC4)
1 | Cc1cncc(N(Cc2ccc(-c3noc(C(F)(F)F)n3)s2)c2cc(C(F)(F)F)cnn2)n1 [Example EM, N-(6-Methylpyrazin-2-yl)-5-(trifluoromethyl)-N-({5-[5-(trifluoromethyl)-1,2,4-oxadiazol-3-yl]thiophen-2-yl}methyl)pyridazin-3-amine] | > 10000 nM | ≤ 1000 nM | > 10000 nM | ≤ 10000 nM | ≤ 10000 nM | ≤ 10000 nM
2 | FC(F)(F)c1cnnc(N(Cc2ccc(-c3noc(C(F)(F)F)n3)s2)c2ccncn2)c1 [Example EL, N-(Pyrimidin-4-yl)-5-(trifluoromethyl)-N-({5-[5-(trifluoromethyl)-1,2,4-oxadiazol-3-yl]thiophen-2-yl}methyl)pyridazin-3-amine] | > 10000 nM | ≤ 1000 nM | ≤ 10000 nM | ≤ 10000 nM | ≤ 1000 nM | ≤ 10000 nM
3 | FC(F)(F)c1nc(-c2ccc(CN(c3cnccn3)c3nccnn3)s2)no1 [Example DE, N-(Pyrazin-2-yl)-N-({5-[5-(trifluoromethyl)-1,2,4-oxadiazol-3-yl]thiophen-2-yl}methyl)-1,2,4-triazin-3-amine] | > 10000 nM | ≤ 1000 nM | ≤ 10000 nM | ≤ 1000 nM | ≤ 1000 nM | ≤ 1000 nM
4 | FC(F)(F)c1nc(-c2ccc(CN(c3cccnc3)c3cnccn3)s2)no1 [Example AO, N-(Pyridin-3-yl)-N-({5-[5-(trifluoromethyl)-1,2,4-oxadiazol-3-yl]thiophen-2-yl}methyl)pyrazin-2-amine] | > 10000 nM | ≤ 500 nM | ≤ 1000 nM | ≤ 500 nM | ≤ 500 nM | ≤ 500 nM
5 | FC(F)(F)c1nc(-c2ccc(CN(c3cnccn3)c3nccc4ncccc34)s2)no1 [Example AJ, N-(Pyrazin-2-yl)-N-({5-[5-(trifluoromethyl)-1,2,4-oxadiazol-3-yl]thiophen-2-yl}methyl)-1,6-naphthyridin-5-amine] | > 10000 nM | ≤ 10000 nM | ≤ 10000 nM | ≤ 10000 nM | ≤ 10000 nM | ≤ 10000 nM
6 | Fc1cnc(N(Cc2ccc(-c3noc(C(F)(F)F)n3)s2)c2cnccn2)nc1 [Example AX, 5-Fluoro-N-(pyrazin-2-yl)-N-({5-[5-(trifluoromethyl)-1,2,4-oxadiazol-3-yl]thiophen-2-yl}methyl)pyrimidin-2-amine] | > 10000 nM | ≤ 10000 nM | ≤ 10000 nM | ≤ 10000 nM | ≤ 10000 nM | ≤ 10000 nM
7 | Cc1nc(N2CCCC2)cc(N(Cc2ccc(-c3noc(C(F)(F)F)n3)s2)c2cnccn2)n1 [Example CQ, 2-Methyl-N-(pyrazin-2-yl)-6-(pyrrolidin-1-yl)-N-({5-[5-(trifluoromethyl)-1,2,4-oxadiazol-3-yl]thiophen-2-yl}methyl)pyrimidin-4-amine] | > 10000 nM | ≤ 10000 nM | ≤ 10000 nM | ≤ 10000 nM | ≤ 10000 nM | ≤ 10000 nM

Second part, the compound after the results:

Row | IC50 (Human HDAC1) | IC50 (Recombinant human HDAC6) | IC50 (Human HDAC9) | IC50 (Human HDAC7) | IC50 (Human HDAC5) | IC50 (Human HDAC4) | Structure (SMILES)
8 | > 10000 nM | ≤ 1000 nM | ≤ 10000 nM | ≤ 10000 nM | ≤ 1000 nM | ≤ 10000 nM | COCc1nccnc1N(Cc1ccc(-c2noc(C(F)(F)F)n2)s1)c1cnccn1 [Example BG, 3-(Methoxymethyl)-N-(pyrazin-2-yl)-N-({5-[5-(trifluoromethyl)-1,2,4-oxadiazol-3-yl]thiophen-2-yl}methyl)pyrazin-2-amine]
9 | > 10000 nM | ≤ 10000 nM | ≤ 10000 nM | ≤ 10000 nM | ≤ 1000 nM | ≤ 10000 nM | COc1cnnc(N(Cc2ccc(-c3noc(C(F)(F)F)n3)s2)c2cnccn2)c1 [Example DV, 5-Methoxy-N-(pyrazin-2-yl)-N-({5-[5-(trifluoromethyl)-1,2,4-oxadiazol-3-yl]thiophen-2-yl}methyl)pyridazin-3-amine]
10 | > 10000 nM | ≤ 10000 nM | ≤ 10000 nM | ≤ 1000 nM | ≤ 500 nM | ≤ 500 nM | CC(c1ccc(-c2noc(C(F)(F)F)n2)s1)N(c1cnccn1)c1cnccn1 (stereo not drawn) [Example BB, N-(Pyrazin-2-yl)-N-(1-{5-[5-(trifluoromethyl)-1,2,4-oxadiazol-3-yl]thiophen-2-yl}ethyl)pyrazin-2-amine]
11 | > 10000 nM | ≤ 10000 nM | ≤ 10000 nM | ≤ 10000 nM | ≤ 1000 nM | ≤ 10000 nM | FC(F)(F)c1cnnc(N(Cc2ccc(-c3noc(C(F)(F)F)n3)s2)c2cccnc2)c1 [Example EI, N-(Pyridin-3-yl)-5-(trifluoromethyl)-N-({5-[5-(trifluoromethyl)-1,2,4-oxadiazol-3-yl]thiophen-2-yl}methyl)pyridazin-3-amine]
12 | > 10000 nM | ≤ 1000 nM | ≤ 10000 nM | ≤ 1000 nM | ≤ 1000 nM | ≤ 500 nM | COc1nccc(N(Cc2ccc(-c3noc(C(F)(F)F)n3)s2)c2cnccn2)n1 [Example CB, 2-Methoxy-N-(pyrazin-2-yl)-N-({5-[5-(trifluoromethyl)-1,2,4-oxadiazol-3-yl]thiophen-2-yl}methyl)pyrimidin-4-amine]
